Assay results taken from patent US12435108B2, “Teixobactin analogue and use thereof” (SUNSHINE LAKE PHARMA CO., LTD., priority 2019, dated 2025).
Read-outs that look alike come from different tables or passages of the source.

Columns and labels:
[1] = system: MRSA (SA86); details: agar plate two-fold dilution, CLSI, 35 °C, 18 h
Protocol: (§1) For the determination of the minimum inhibitory concentration (MIC), according to the CLSI standard, a two-fold dilution method with a plate and a Denlay multi-point inoculator were used to conduct the drug sensitivity test. The test bacteria were enriched with MH broth or brain heart infusion. The drug solution was diluted two-fold with MH broth to prepare various required concentrations, and appropriate amounts were added to the plates respectively. After the MH agar medium was melted, it was quantitatively poured into the plates containing the drug solution and mixed uniformly. The final concentrations of the samples were: 128, 64, 32, 16, 8, 4, 2, 1, 0.5, 0.25, 0.125, 0.063, 0.031, 0.016, 0.008, 0.004 μg/mL, respectively. The test bacteria were inoculated (inoculation amount was 10^4 cfu/point) and then incubated at constant temperature of 35 □. The results were observed after 18 h. The minimum concentration of the drug contained in the sterile growth plate was the minimum inhibitory concentration (MIC). Selection of strain types: MRSA (SA86 and SA88), MSSA (ATCC29213), Enterococcus (ET6) and Streptococcus faecalis (SF).

[2] = system: MSSA (ATCC29213); details: Test Method 1: agar plate two-fold dilution, CLSI, 35 °C, 18 h
Protocol: as §1

[3] = system: Enterococcus (ET6); details: agar plate two-fold dilution, CLSI, 35 °C, 18 h
Protocol: as §1

[4] = system: Streptococcus faecalis (SF); details: agar plate two-fold dilution, CLSI, 35 °C, 18 h
Protocol: as §1

[5] = system: MRSA (ATCC43300)
Protocol: (§2) For the determination of the minimum inhibitory concentration (MIC), according to the CLSI standard, the minimum inhibitory concentration of 3 ATCC standard strains (2 strains of Staphylococcus aureus and 1 strain of Enterococcus faecium) was tested by two independent repeated experiments. Compounds were diluted two-fold in a 96-well plate from the highest detection concentration of 64 μg/mL. The test plate was placed in a common incubator and incubated at 35±2° C. for 20-24 hours. The growth of bacteria in the wells was observed and recorded. Inoculation method: 5-10 bacterial single colonies from the solid medium plate resuspended in 500 μL of 1.02×CAMHB, and then OD600 was adjusted to 0.1-0.15 with a spectrophotometer; then the bacteria were diluted 300-fold with 1.02×CAMHB to ˜2×10^5 CFU/ml (stepwise dilution, first 10-fold and then 30-fold), and the prepared bacterial inoculum was inoculated in 96-well plate within 15 minutes, the number of inoculated bacteria could be obtained by plate count. Colony count: the inoculated bacteria was diluted with liquid medium from 10^−1 to 10^−3 (such as 100 μL of bacterial inoculum+900 μL of 1.02×CAMHB); 100 μl of the above bacterial dilution was evenly spread on a TSA or TSA II plate, with 2 replicates per dilution. After the medium was absorbed by TSA or TSA II for 10 minutes, the plate was inverted and cultured at 35±2° C. for 24 hours in an incubator. Record of minimum inhibitory concentration and statistics of colony count: the minimum inhibitory concentration of each compound was recorded referring to the CLSI standard; the number of colonies of bacterial inoculum of different dilutions on the TSA or TSA II plate was counted and the amount of bacterial inoculation was calculated. Selection of strain types: MRSA (ATCC43300), MSSA (ATCC29213) and VRE (ATCC700221).

[6] = system: MSSA (ATCC29213)
Protocol: as §2

[7] = system: VRE (ATCC700221)
Protocol: as §2

[8] = 96-well plate, CAMHB, 35±2 °C, 20-24 hours, highest concentration 64 μg/mL
[9] = Test Method 2: 96-well plate, CAMHB, 35±2 °C, 20-24 hours, highest concentration 64 μg/mL

SMILES: CC[C@H](C)[C@H](NC(=O)[C@@H](Cc1ccccc1)NC)C(=O)N[C@@H](CO)C(=O)N[C@H](CCC(N)=O)C(=O)N[C@@H](C(=O)N[C@H](C(=O)N[C@@H](CO)C(=O)N[C@H]1C(=O)N[C@@H](C)C(=O)NC2(CC2)C(=O)N[C@@H]([C@@H](C)CC)C(=O)O[C@H]1C)[C@@H](C)CC)[C@@H](C)CC.O=C(O)C(F)(F)F [Example 5]
- In vitro antibacterial activity MIC, MRSA SA86 [1]: 4 µg/mL
- In vitro antibacterial activity MIC, MSSA(ATCC29213) [2]: 4 µg/mL
- In vitro antibacterial activity MIC, Enterococcus (ET6) [3]: 8 µg/mL
- In vitro antibacterial activity MIC, Streptococcus faecalis(SF) [4]: 8 µg/mL

SMILES: CC[C@H](C)[C@H](NC(=O)[C@@H](Cc1ccccc1)NC)C(=O)N[C@@H](CO)C(=O)N[C@H](CCC(N)=O)C(=O)N[C@@H](C(=O)N[C@H](C(=O)N[C@@H](CO)C(=O)N[C@H]1C(=O)N[C@@H](C)C(=O)NC2(CCC2)C(=O)N[C@@H]([C@@H](C)CC)C(=O)O[C@H]1C)[C@@H](C)CC)[C@@H](C)CC.O=C(O)C(F)(F)F [Example 6]
- In vitro antibacterial activity MIC, MRSA SA86 [1]: 8 µg/mL
- In vitro antibacterial activity MIC, MSSA(ATCC29213) [2]: 8 µg/mL

SMILES: CC[C@H](C)[C@H](NC(=O)[C@@H](Cc1ccccc1)NC)C(=O)N[C@@H](CO)C(=O)N[C@H](CCC(N)=O)C(=O)N[C@@H](C(=O)N[C@H](C(=O)N[C@@H](CO)C(=O)N[C@H]1C(=O)N[C@@H](C)C(=O)N[C@@]2(C[C@H]2CCO)C(=O)N[C@@H]([C@@H](C)CC)C(=O)O[C@H]1C)[C@@H](C)CC)[C@@H](C)CC.O=C(O)C(F)(F)F [Example 12]
- In vitro antibacterial activity MIC, MRSA(ATCC43300) [5, 8]: 8 µg/mL
- In vitro antibacterial activity MIC, MSSA(ATCC29213) [6, 9]: 8 µg/mL

SMILES: CC[C@H](C)[C@H](NC(=O)[C@@H](Cc1csc2ccccc12)NC)C(=O)N[C@@H](CO)C(=O)N[C@H](CCC(N)=O)C(=O)N[C@@H](C(=O)N[C@H](C(=O)N[C@@H](CO)C(=O)N[C@H]1C(=O)N[C@@H](C)C(=O)N[C@@]2(C[C@H]2CC(F)F)C(=O)N[C@@H]([C@@H](C)CC)C(=O)O[C@H]1C)[C@@H](C)CC)[C@@H](C)CC.O=C(O)C(F)(F)F [Example 14]
- In vitro antibacterial activity MIC, MRSA(ATCC43300) ([5]; ATCC43300): 4 µg/mL
- In vitro antibacterial activity MIC, MSSA(ATCC29213) ([6]; ATCC29213): 4 µg/mL
- In vitro antibacterial activity MIC, VRE(ATCC700221) ([7]; ATCC700221): 8 µg/mL

SMILES: CC[C@H](C)[C@H](NC(=O)[C@@H](Cc1csc2ccccc12)NC)C(=O)N[C@@H](CO)C(=O)N[C@H](CCC(N)=O)C(=O)N[C@@H](C(=O)N[C@H](C(=O)N[C@@H](CO)C(=O)N[C@H]1C(=O)N[C@@H](C)C(=O)NC2(CC2)C(=O)N[C@@H]([C@@H](C)CC)C(=O)O[C@H]1C)[C@@H](C)CC)[C@@H](C)CC.O=C(O)C(F)(F)F [Example 15]
- In vitro antibacterial activity MIC, MRSA(ATCC43300) ([5]; ATCC43300): 4 µg/mL
- In vitro antibacterial activity MIC, MSSA(ATCC29213) ([6]; ATCC29213): 4 µg/mL
- In vitro antibacterial activity MIC, VRE(ATCC700221) ([7]; ATCC700221): 8 µg/mL

SMILES: C=C[C@H]1C[C@]12NC(=O)[C@H](C)NC(=O)[C@H](NC(=O)[C@H](CO)NC(=O)[C@@H](NC(=O)[C@H](NC(=O)[C@@H](CCC(N)=O)NC(=O)[C@H](CO)NC(=O)[C@@H](NC(=O)[C@@H](Cc1csc3ccccc13)NC)[C@@H](C)CC)[C@@H](C)CC)[C@@H](C)CC)[C@H](C)OC(=O)[C@H]([C@@H](C)CC)NC2=O.O=C(O)C(F)(F)F [Example 16]
- In vitro antibacterial activity MIC, MRSA(ATCC43300) ([5]; ATCC43300): 4 µg/mL
- In vitro antibacterial activity MIC, MSSA(ATCC29213) ([6]; ATCC29213): 4 µg/mL
- In vitro antibacterial activity MIC, VRE(ATCC700221) ([7]; ATCC700221): 4 µg/mL

SMILES: CC[C@H](C)[C@H](NC(=O)[C@@H](Cc1csc2ccccc12)NC)C(=O)N[C@@H](CO)C(=O)N[C@H](CCC(N)=O)C(=O)N[C@@H](C(=O)N[C@H](C(=O)N[C@@H](CO)C(=O)N[C@H]1C(=O)N[C@@H](C)C(=O)NC2(CCCCCC2)C(=O)N[C@@H]([C@@H](C)CC)C(=O)O[C@H]1C)[C@@H](C)CC)[C@@H](C)CC.O=C(O)C(F)(F)F [Example 17]
- In vitro antibacterial activity MIC, MRSA(ATCC43300) ([5]; ATCC43300): 4 µg/mL
- In vitro antibacterial activity MIC, MSSA(ATCC29213) ([6]; ATCC29213): 4 µg/mL
- In vitro antibacterial activity MIC, VRE(ATCC700221) ([7]; ATCC700221): 8 µg/mL

SMILES: CC[C@H](C)[C@H](NC(=O)[C@@H](Cc1ccc(-c2ccccc2)cc1)NC)C(=O)N[C@@H](CO)C(=O)N[C@H](CCC(N)=O)C(=O)N[C@@H](C(=O)N[C@H](C(=O)N[C@@H](CO)C(=O)N[C@H]1C(=O)N[C@@H](C)C(=O)NC2(CC2)C(=O)N[C@@H]([C@@H](C)CC)C(=O)O[C@H]1C)[C@@H](C)CC)[C@@H](C)CC.O=C(O)C(F)(F)F [Example 18]
- In vitro antibacterial activity MIC, MRSA(ATCC43300) ([5]; ATCC43300): 2 µg/mL
- In vitro antibacterial activity MIC, MSSA(ATCC29213) ([6]; ATCC29213): 2 µg/mL
- In vitro antibacterial activity MIC, VRE(ATCC700221) ([7]; ATCC700221): 2 µg/mL

SMILES: CC[C@H](C)[C@H](NC(=O)[C@@H](Cc1ccc(-c2ccccc2)cc1)NC)C(=O)N[C@@H](CO)C(=O)N[C@H](CCC(N)=O)C(=O)N[C@@H](C(=O)N[C@H](C(=O)N[C@@H](CO)C(=O)N[C@H]1C(=O)N[C@@H](C)C(=O)NC2(CCCCCC2)C(=O)N[C@@H]([C@@H](C)CC)C(=O)O[C@H]1C)[C@@H](C)CC)[C@@H](C)CC.O=C(O)C(F)(F)F [Example 19]
- In vitro antibacterial activity MIC, MRSA(ATCC43300) ([5]; ATCC43300): 4 µg/mL
- In vitro antibacterial activity MIC, MSSA(ATCC29213) ([6]; ATCC29213): 4 µg/mL
- In vitro antibacterial activity MIC, VRE(ATCC700221) ([7]; ATCC700221): 4 µg/mL

SMILES: C=C[C@H]1C[C@]12NC(=O)[C@H](C)NC(=O)[C@H](NC(=O)[C@H](CO)NC(=O)[C@@H](NC(=O)[C@H](NC(=O)[C@@H](CCC(N)=O)NC(=O)[C@H](CO)NC(=O)[C@@H](NC(=O)[C@@H](Cc1ccc(-c3ccccc3)cc1)NC)[C@@H](C)CC)[C@@H](C)CC)[C@@H](C)CC)[C@H](C)OC(=O)[C@H]([C@@H](C)CC)NC2=O.O=C(O)C(F)(F)F [Example 20]
- In vitro antibacterial activity MIC, MRSA(ATCC43300) ([5]; ATCC43300): 4 µg/mL
- In vitro antibacterial activity MIC, MSSA(ATCC29213) ([6]; ATCC29213): 4 µg/mL
- In vitro antibacterial activity MIC, VRE(ATCC700221) ([7]; ATCC700221): 4 µg/mL

SMILES: CC[C@H](C)[C@H](NC(=O)[C@@H](Cc1ccc(-c2ccc(-c3ccccc3)cc2)cc1)NC)C(=O)N[C@@H](CO)C(=O)N[C@H](CCC(N)=O)C(=O)N[C@@H](C(=O)N[C@H](C(=O)N[C@@H](CO)C(=O)N[C@H]1C(=O)N[C@@H](C)C(=O)NC2(CC2)C(=O)N[C@@H]([C@@H](C)CC)C(=O)O[C@H]1C)[C@@H](C)CC)[C@@H](C)CC.O=C(O)C(F)(F)F [Example 21]
- In vitro antibacterial activity MIC, MRSA(ATCC43300) ([5]; ATCC43300): 8 µg/mL
- In vitro antibacterial activity MIC, MSSA(ATCC29213) ([6]; ATCC29213): 8 µg/mL
- In vitro antibacterial activity MIC, VRE(ATCC700221) ([7]; ATCC700221): 8 µg/mL

SMILES: C=C[C@H]1C[C@]12NC(=O)[C@H](C)NC(=O)[C@H](NC(=O)[C@H](CO)NC(=O)[C@@H](NC(=O)[C@H](NC(=O)[C@@H](CCC(N)=O)NC(=O)[C@H](CO)NC(=O)[C@@H](NC(=O)[C@@H](Cc1ccc3ccccc3c1)NC)[C@@H](C)CC)[C@@H](C)CC)[C@@H](C)CC)[C@H](C)OC(=O)[C@H]([C@@H](C)CC)NC2=O.O=C(O)C(F)(F)F [Example 22]
- In vitro antibacterial activity MIC, MRSA(ATCC43300) ([5]; ATCC43300): 2 µg/mL
- In vitro antibacterial activity MIC, MSSA(ATCC29213) ([6]; ATCC29213): 2 µg/mL
- In vitro antibacterial activity MIC, VRE(ATCC700221) ([7]; ATCC700221): 4 µg/mL

SMILES: CC[C@H](C)[C@H](NC(=O)[C@@H](Cc1ccc2ccccc2c1)NC)C(=O)N[C@@H](CO)C(=O)N[C@H](CCC(N)=O)C(=O)N[C@@H](C(=O)N[C@H](C(=O)N[C@@H](CO)C(=O)N[C@H]1C(=O)N[C@@H](C)C(=O)NC2(CC2)C(=O)N[C@@H]([C@@H](C)CC)C(=O)O[C@H]1C)[C@@H](C)CC)[C@@H](C)CC.O=C(O)C(F)(F)F [Example 23]
- In vitro antibacterial activity MIC, MRSA(ATCC43300) ([5]; ATCC43300): 2 µg/mL
- In vitro antibacterial activity MIC, MSSA(ATCC29213) ([6]; ATCC29213): 4 µg/mL
- In vitro antibacterial activity MIC, VRE(ATCC700221) ([7]; ATCC700221): 4 µg/mL

SMILES: CC[C@H](C)[C@H](NC(=O)[C@@H](Cc1ccc2ccccc2c1)NC)C(=O)N[C@@H](CO)C(=O)N[C@H](CCC(N)=O)C(=O)N[C@@H](C(=O)N[C@H](C(=O)N[C@@H](CO)C(=O)N[C@H]1C(=O)N[C@@H](C)C(=O)NC2(CCCCCC2)C(=O)N[C@@H]([C@@H](C)CC)C(=O)O[C@H]1C)[C@@H](C)CC)[C@@H](C)CC.O=C(O)C(F)(F)F [Example 24]
- In vitro antibacterial activity MIC, MRSA(ATCC43300) ([5]; ATCC43300): 4 µg/mL
- In vitro antibacterial activity MIC, MSSA(ATCC29213) ([6]; ATCC29213): 4 µg/mL
- In vitro antibacterial activity MIC, VRE(ATCC700221) ([7]; ATCC700221): 4 µg/mL

SMILES: CC[C@H](C)[C@H](NC(=O)[C@@H](Cc1ccc(-c2ccc(Oc3ccccc3)cc2)cc1)NC)C(=O)N[C@@H](CO)C(=O)N[C@H](CCC(N)=O)C(=O)N[C@@H](C(=O)N[C@H](C(=O)N[C@@H](CO)C(=O)N[C@H]1C(=O)N[C@@H](C)C(=O)NC2(CC2)C(=O)N[C@@H]([C@@H](C)CC)C(=O)O[C@H]1C)[C@@H](C)CC)[C@@H](C)CC.O=C(O)C(F)(F)F [Example 25]
- In vitro antibacterial activity MIC, MRSA(ATCC43300) ([5]; ATCC43300): 4 µg/mL
- In vitro antibacterial activity MIC, MSSA(ATCC29213) ([6]; ATCC29213): 4 µg/mL
- In vitro antibacterial activity MIC, VRE(ATCC700221) ([7]; ATCC700221): 4 µg/mL

SMILES: CC[C@H](C)[C@H](NC(=O)[C@@H](Cc1ccccc1)NC)C(=O)N[C@@H](CO)C(=O)N[C@H](CCC(N)=O)C(=O)N[C@@H](C(=O)N[C@H](C(=O)N[C@@H](CO)C(=O)N[C@H]1C(=O)N[C@@H](C)C(=O)NC(C)(C)C(=O)N[C@@H]([C@@H](C)CC)C(=O)O[C@H]1C)[C@@H](C)CC)[C@@H](C)CC.O=C(O)C(F)(F)F [Example 26]
- In vitro antibacterial activity MIC, MRSA(ATCC43300) [5, 8]: 32 µg/mL
- In vitro antibacterial activity MIC, MSSA(ATCC29213) [6, 9]: 64 µg/mL
- In vitro antibacterial activity MIC, VRE(ATCC700221) [7, 8]: >64 µg/mL
